Values after ≈ are worked out from the molar mass of the structure shown.
Legend:
[1] = system: methicillin-sensitive Staphylococcus aureus; experiment: MIC by broth micro-dilution (CLSI), methicillin-sensitive S. aureus; format: cell-based; conditions: Staphylococcus aureus, ATCC 29213 / MSSA, MSSA S. aureus ATCC29213; read-out: MIC
[2] = system: carbapenem sensitive Escherichia coli; experiment: MIC by broth micro-dilution (CLSI), carbapenem sensitive E. coli; format: cell-based; conditions: Escherichia coli, ATCC25922, ESBL −ve E. coli ATCC25922; read-out: MIC
[3] = system: carbapenemase producing K. pneumoniae; experiment: MIC by broth micro-dilution (CLSI), carbapenemase producing K. pneumoniae; format: cell-based, Klebsiella pneumoniae; conditions: Klebsiella pneumoniae, ATCCBAA1705, KPC-2 K. pneumoniae ATCC BAA-1705; read-out: MIC
[4] = system: carbapenem sensitive Pseudomonas aeruginosa; experiment: MIC by broth micro-dilution (CLSI), carbapenem sensitive P. aeruginosa; format: cell-based; conditions: Pseudomonas aeruginosa, ATCC27853, Meropenem susceptible P. aeruginosa ATCC27853; read-out: MIC

| Compound | MIC [1] | MIC [2] | MIC [3] | MIC [4] |
| --- | --- | --- | --- | --- |
| C[C@@H](NC(=O)Cn1nnnc1-c1cccs1)[C@H]1C(=O)N2C(C(=O)O)=C(S[C@@H]3CN[C@H](C(=O)N(C)C)C3)[C@H](C)[C@H]12 [Example 357, (4R,5S,6R)-3-((3S,5S)-5-(dimethylcarbamoyl)pyrrolidin-3-ylthio)-4-methyl-7-oxo-6-((R)-1-(2-(5-(thiophen-2-yl)-1H-tetrazol-1-yl)acetamido)ethyl)-1-azabicyclo[3.2.0]hept-2-ene-2-carboxylic acid] | 2 µg/mL (≈ 3.48 µM) | 1 µg/mL (≈ 1.74 µM) | 32 µg/mL (≈ 55.7 µM) | > 128 µg/mL |
| C[C@@H](NC(=O)Cn1nnnc1-c1cccs1)[C@H]1C(=O)N2C(C(=O)O)=C(S[C@@H]3CN[C@H](C(=O)N4CC[C@@H](N)C4)C3)[C@H](C)[C@H]12 [Example 358, (4R,5S,6R)-3-((3S,5S)-5-((R)-3-aminopyrrolidine-1-carbonyl)pyrrolidin-3-ylthio)-4-methyl-7-oxo-6-((R)-1-(2-(5-(thiophen-2-yl)-1H-tetrazol-1-yl)acetamido)ethyl)-1-azabicyclo[3.2.0]hept-2-ene-2-carboxylic acid] | 1 µg/mL (≈ 1.62 µM) | 1 µg/mL (≈ 1.62 µM) | 32 µg/mL (≈ 52 µM) | > 128 µg/mL |
| C[C@@H](NC(=O)Cn1cnnn1)[C@H]1C(=O)N2C(C(=O)O)=C(S[C@@H]3CN[C@H](C(=O)N4CCN(C)CC4)C3)[C@H](C)[C@H]12 [Example 359, (4R,5S,6R)-6-((R)-1-(2-(1H-tetrazol-1-yl)acetamido)ethyl)-4-methyl-3-((3S,5S)-5-(4-methylpiperazine-1-carbonyl)pyrrolidin-3-ylthio)-7-oxo-1-azabicyclo[3.2.0]hept-2-ene-2-carboxylic acid] | 8 µg/mL (≈ 14.6 µM) | 0.5 µg/mL (≈ 0.913 µM) | 2 µg/mL (≈ 3.65 µM) | 16 µg/mL (≈ 29.2 µM) |
| C[C@@H](NC(=O)Cn1cnnn1)[C@H]1C(=O)N2C(C(=O)O)=C(S[C@@H]3CN[C@H](C(=O)N4CC[N+](C)(C)CC4)C3)[C@H](C)[C@H]12 [Example 360, 4-((2S,4S)-((4R,5S,6R)-6-((R)-1-(2-(1H-tetrazol-1-yl)acetamido)ethyl)-2-carboxy-4-methyl-7-oxo-1-azabicyclo[3.2.0]hept-2-en-3-ylthio)pyrrolidine-2-carbonyl)-1,1-dimethylpiperazin-1-ium iodide] | 8 µg/mL | 0.5 µg/mL | 2 µg/mL | 1 µg/mL |
| C[C@@H](NC(=O)Cn1cnnn1)[C@H]1C(=O)N2C(C(=O)O)=C(S[C@@H]3CN[C@H](C(=O)N4CC[N+](C)(CC(N)=O)CC4)C3)[C@H](C)[C@H]12.[I-] [Example 363, 4-((2S,4S)-4-((4R,5S,6R)-6-((R)-1-(2-(1H-tetrazol-1-yl)acetamido)ethyl)-2-carboxy-4-methyl-7-oxo-1-azabicyclo[3.2.0]hept-2-en-3-ylthio)pyrrolidine-2-carbonyl)-1-(2-amino-2-oxoethyl)-1-methylpiperazin-1-ium iodide] | 4 µg/mL | 0.25 µg/mL | 2 µg/mL | 1 µg/mL |
| C[C@@H](NC(=O)Cn1cnnn1)[C@H]1C(=O)N2C(C(=O)O)=C(S[C@@H]3CN[C@H](C(=O)N4CCN(CCN)CC4)C3)[C@H](C)[C@H]12 [Example 364, (4R,5S,6R)-6-((R)-1-(2-(1H-tetrazol-1-yl)acetamido)ethyl)-3-((3S,5S)-5-(4-(2-aminoethyl)piperazine-1-carbonyl)pyrrolidin-3-ylthio)-4-methyl-7-oxo-1-azabicyclo[3.2.0]hept-2-ene-2-carboxylic acid] | 4 µg/mL (≈ 6.94 µM) | 0.25 µg/mL (≈ 0.434 µM) | 2 µg/mL (≈ 3.47 µM) | 1 µg/mL (≈ 1.73 µM) |
| C[C@@H](NC(=O)Cn1cnnn1)[C@H]1C(=O)N2C(C(=O)O)=C(S[C@@H]3CN[C@H](C(=O)N4CCC5(CCN5)CC4)C3)[C@H](C)[C@H]12 [Example 365, (4R,5S,6R)-3-((3S,5S)-5-(1,7-diazaspiro[3.5]nonane-7-carbonyl)pyrrolidin-3-ylthio)-6-((R)-1-(2-(1H-tetrazol-1-yl)acetamido)ethyl)-4-methyl-7-oxo-1-azabicyclo[3.2.0]hept-2-ene-2-carboxylic acid] | 4 µg/mL (≈ 6.97 µM) | 0.25 µg/mL (≈ 0.436 µM) | 2 µg/mL (≈ 3.49 µM) | 2 µg/mL (≈ 3.49 µM) |
| C[C@@H](NC(=O)Cn1cnnn1)[C@H]1C(=O)N2C(C(=O)O)=C(S[C@@H]3CN[C@H](C(=O)N4CC5(CCNCC5)C4)C3)[C@H](C)[C@H]12 [Example 366] | 4 µg/mL (≈ 6.97 µM) | 0.25 µg/mL (≈ 0.436 µM) | 2 µg/mL (≈ 3.49 µM) | 2 µg/mL (≈ 3.49 µM) |
| C[C@@H](NC(=O)Cn1cnnn1)[C@H]1C(=O)N2C(C(=O)O)=C(S[C@@H]3CN[C@H](C(=O)N4CCN(C(=N)N)CC4)C3)[C@H](C)[C@H]12 [Example 367, (4R,5S,6R)-6-((R)-1-(2-(1H-tetrazol-1-yl)acetamido)ethyl)-3-((3S,5S)-5-(4-carbamimidoylpiperazine-1-carbonyl)pyrrolidin-3-ylthio)-4-methyl-7-oxo-1-azabicyclo[3.2.0]hept-2-ene-2-carboxylic acid] | 2 µg/mL (≈ 3.47 µM) | 0.25 µg/mL (≈ 0.434 µM) | 2 µg/mL (≈ 3.47 µM) | 1 µg/mL (≈ 1.74 µM) |
| C[C@@H](NC(=O)Cn1cnnn1)[C@H]1C(=O)N2C(C(=O)O)=C(S[C@@H]3CN[C@H](C(=O)N4CCC5(CC4)CNC5)C3)[C@H](C)[C@H]12 [Example 368, (4R,5S,6R)-6-((R)-1-(2-(1H-tetrazol-1-yl)acetamido)ethyl)-3-((3S,5S)-5-(2,7-diazaspiro[3.5]nonane-7-carbonyl)pyrrolidin-3-ylthio)-4-methyl-7-oxo-1-azabicyclo[3.2.0]hept-2-ene-2-carboxylic acid] | 2 µg/mL (≈ 3.49 µM) | 0.25 µg/mL (≈ 0.436 µM) | 2 µg/mL (≈ 3.49 µM) | 1 µg/mL (≈ 1.74 µM) |
| C[C@@H](NC(=O)CCn1cnnn1)[C@H]1C(=O)N2C(C(=O)O)=C(S[C@@H]3CN[C@H](C(=O)N4CC[C@@H](N)C4)C3)[C@H](C)[C@H]12 [Example 369, (4R,5S,6R)-6-((R)-1-(3-(1H-tetrazol-1-yl)propanamido)ethyl)-3-((3S,5S)-5-((R)-3-aminopyrrolidine-1-carbonyl)pyrrolidin-3-ylthio)-4-methy-7-oxo-1-azabicyclo[3.2.0]hept-2-ene-2-carboxylic acid] | 2 µg/mL (≈ 3.65 µM) | 0.25 µg/mL (≈ 0.457 µM) | 8 µg/mL (≈ 14.6 µM) | 16 µg/mL (≈ 29.2 µM) |
| C[C@@H](NC(=O)Cn1cnnn1)[C@H]1C(=O)N2C(C(=O)O)=C(S[C@@H]3CN[C@H](C(=O)N4CCC(Nc5ncccn5)CC4)C3)[C@H](C)[C@H]12 [Example 370, (4R,5S,6R)-6-((R)-1-(2-(1H-tetrazol-1-yl)acetamido)ethyl)-4-methyl-7-oxo-3-((3S,5S)-5-(4-(pyrimidin-2-ylamino)piperidine-1-carbonyl)pyrrolidin-3-ylthio)-1-azabicyclo[3.2.0]hept-2-ene-2-carboxylic acid] | 8 µg/mL (≈ 12.8 µM) | 4 µg/mL (≈ 6.39 µM) | 64 µg/mL (≈ 102 µM) | > 128 µg/mL |
| C[C@@H](NC(=O)Cn1cnnn1)[C@H]1C(=O)N2C(C(=O)O)=C(S[C@@H]3CN[C@H](C(=O)N4CCC(N)(CC#N)CC4)C3)[C@H](C)[C@H]12 [Example 371, (4R,5S,6R)-6-((R)-1-(2-(1H-tetrazol-1-yl)acetamido)ethyl)-3-((3S,5S)-5-(4-amino-4-(cyanomethyl)piperidine-1-carbonyl)pyrrolidin-3-ylthio)-4-methyl-7-oxo-1-azabicyclo[3.2.0]hept-2-ene-2-carboxylic acid] | 16 µg/mL (≈ 27.3 µM) | 1 µg/mL (≈ 1.7 µM) | 4 µg/mL (≈ 6.82 µM) | 64 µg/mL (≈ 109 µM) |
| C[C@@H](NC(=O)Cn1nnnc1C1CC1)[C@H]1C(=O)N2C(C(=O)O)=C(S[C@@H]3CN[C@H](C(=O)N4CC[C@@H](N)C4)C3)[C@H](C)[C@H]12 [Example 372, (4R,5S,6R)-3-((3S,5S)-5-((R)-3-aminopyrrolidine-1-carbonyl)pyrrolidin-3-ylthio)-6-((R)-1-(2-(5-cyclopropyl-1H-tetrazol-1-yl)acetamido)ethyl)-4-methyl-7-oxo-1-azabicyclo[3.2.0]hept-2-ene-2-carboxylic acid] | 4 µg/mL (≈ 6.97 µM) | 0.5 µg/mL (≈ 0.872 µM) | 8 µg/mL (≈ 13.9 µM) | 64 µg/mL (≈ 112 µM) |
| C[C@@H](NC(=O)c1ccccc1-n1cnnn1)[C@H]1C(=O)N2C(C(=O)O)=C(S[C@@H]3CN[C@H](C(=O)N(C)C)C3)[C@H](C)[C@H]12 [Example 373] | 4 µg/mL (≈ 7.21 µM) | 32 µg/mL (≈ 57.7 µM) | > 128 µg/mL | > 128 µg/mL |
| C[C@@H](NC(=O)c1ccccc1-n1cnnn1)[C@H]1C(=O)N2C(C(=O)O)=C(S[C@@H]3CN[C@H](C(=O)N4CC[C@@H](N)C4)C3)[C@H](C)[C@H]12 [Example 374, (4R,5S,6R)-6-((R)-1-(2-(1H-tetrazol-1-yl)benzamido)ethyl)-3-((3S,5S)-5-((R)-3-aminopyrrolidine-1-carbonyl)pyrrolidin-3-ylthio)-4-methyl-7-oxo-1-azabicyclo[3.2.0]hept-2-ene-2-carboxylic acid] | 8 µg/mL (≈ 13.4 µM) | 32 µg/mL (≈ 53.7 µM) | > 128 µg/mL | > 128 µg/mL |
| C[C@@H](NC(=O)Cn1cnnn1)[C@H]1C(=O)N2C(C(=O)O)=C(S[C@@H]3CN[C@H](C(=O)N4CC[N+](C)(CCN)CC4)C3)[C@H](C)[C@H]12.[I-] [Example 375, 4-((2S,4S)-4-((4R,5S,6R)-6-((R)-1-(2-(1H-tetrazol-1-yl)acetamido)ethyl)-2-carboxy-4-methyl-7-oxo-1-azabicyclo[3.2.0]hept-2-en-3-ylthio)pyrrolidine-2-carbonyl)-1-(2-aminoethyl)-1-methylpiperazin-1-ium iodide] | 16 µg/mL | 2 µg/mL | 8 µg/mL | 4 µg/mL |
